Laboratory results: patent US7230116B2, “Pyrazolyl-substituted heterocycles and their use as phytosanitary products” (Bayer CropScience, AG, priority 2001, dated 2007)
Blank lines part the entries; values can stand above or below the compound they belong to.

Experiments:
[1] = logP determination by HPLC (reversed-phase C18), EEC Directive 79/831 Annex V.A 8; format: physicochemical; details: HPLC reversed-phase column (C 18), 43° C.; for chromatographic logP: reversed-phase C18 HPLC column, pH 2.3
Experimental: The logP values given for the Examples (I-2-A-a) were determined in accordance with EEC Directive 79/831 Annex V.A 8 by HPLC (High Performance Liquid Chromatography) using a reversed-phase column (C 18). Temperature: 43° C. • (a) Mobile phases for the determination in the acidic range: 0.1% aqueous phosphoric acid, acetonitrile; linear gradient from 10% acetonitrile to 90% acetonitrile. • (b) Mobile phases for the determination in the neutral range: 0.01 molar aqueous phosphate buffer solution, acetonitrile; linear gradient from 10% acetonitrile to 90% acetonitrile. Calibration was carried out using unbranched alkan-2-ones (of 3 to 16 carbon atoms) with known logP values (determination of the logP values by the retention times using linear interpolation between two successive alkanones).

[2] = system: larvae of the mustard beetle (Phaedon cochleariae); assay: Phaedon larvae test; format: in vivo; details: 500 ppm active compound
Experimental: (§1) Phaedon larvae Test [table] To produce a suitable preparation of active compound, 1 part by weight of active compound is mixed with the stated amounts of solvent and emulsifier, and the concentrate is diluted with emulsifier-containing water to the desired concentration. Cabbage leaves (Brassica oleracea) are treated by being dipped into the preparation of active compound of the desired concentration and are populated with larvae of the mustard beetle (Phaedon cochleariae) while the leaves are still moist. After the desired period of time, the kill in % is determined. 100% means that all beetle larvae have been killed; 0% means that none of the beetle larvae have been killed.

[3] = system: caterpillars of the diamondback moth (Plutella xylostella); assay: Plutella test; format: in vivo; details: 500 ppm active compound
Experimental: as §1, with “Plutella” for “Phaedon larvae”, “caterpillars” for “larvae”, “diamondback moth (Plutella xylostella)” for “mustard beetle (Phaedon cochleariae)”, “caterpillars” for “beetle larvae”

Setaria = assay: Post-emergence test, greenhouse; format: in vivo; details: after three weeks
Experimental: (§2) Post-Emergence Test [table] To produce a suitable preparation of active compound, 1 part by weight of active compound is mixed with the stated amount of solvent, the stated amount of emulsifier is added and the concentrate is diluted with water to the desired concentration. Test plants of a height of 5-15 cm are sprayed with the preparation of active compound such that the particular amounts of active compound desired are applied per unit area. The concentration of the spray liquor is chosen such that the particular amounts of active compound desired are applied in 1000 l of water/ha. After three weeks, the degree of damage to the plants is rated in % damage in comparison to the development of the untreated control. The figures denote: [table]

Avena fatua = assay: Post-emergence test, greenhouse; format: in vivo; details: after three weeks
Experimental: as §2

Oilseed rape = assay: Post-emergence test, greenhouse; format: in vivo; details: 125 g ai/ha, after three weeks
Experimental: as §2

Alopecurus = assay: Post-emergence test, greenhouse; format: in vivo; details: after three weeks
Experimental: as §2

Viola = assay: Post-emergence test, greenhouse; format: in vivo; details: 125 g ai/ha, after three weeks
Experimental: as §2

Bromus = assay: Post-emergence test, greenhouse; format: in vivo; details: after three weeks
Experimental: as §2

Abutilon = assay: Post-emergence test, greenhouse; format: in vivo; details: 250 g ai/ha, after three weeks
Experimental: as §2

Sugarbeet = assay: Post-emergence test, greenhouse; format: in vivo; details: 250 g ai/ha, after three weeks
Experimental: as §2

Lolium = assay: Post-emergence test, greenhouse; format: in vivo; details: after three weeks
Experimental: as §2

[4] = system: peach aphid (Myzus persicae); assay: Myzus test (cabbage leaves dipped); format: in vivo; details: 500 ppm active compound
Experimental: as §1, with “Myzus” for “Phaedon larvae”, “oleracea) which are heavily infested by the peach aphid (Myzus persicae)” for “oleracea)”, “concentration.” for “concentration and are populated with larvae of the mustard beetle (Phaedon cochleariae) while the leaves are still moist.”, “aphids” for “beetle larvae”

[5] = system: greenhouse red spider mite (Tetranychus urticae); assay: Tetranychus test (OP-resistant/dip treatment); format: in vivo; details: 100 ppm active compound, OP-resistant, dip treatment
Experimental: Tetranychus Test (OP-Resistant/Dip Treatment)
To produce a suitable preparation of active compound, 1 part by weight of active compound is mixed with the stated amounts of solvent and emulsifier, and the concentrate is diluted with emulsifier-containing water to the desired concentration.
Bean plants (Phaseolus vulgaris) which are heavily infested by all stages of the greenhouse red spider mite (Tetranychus urticae) are treated by being dipped into a preparation of active compound of the desired concentration.
After the desired period of time, the effect in % is determined. 100% means that all spider mites have been killed; 0% means that none of the spider mites have been killed.

[6] = system: cotton aphid (Aphis gossypii); assay: Aphis gossypii test (cotton leaves dipped); format: in vivo; details: 500 ppm active compound
Experimental: as §1, with “Aphis gossypii” for “Phaedon larvae”, “Cotton” for “Cabbage”, “(Gossypium hirsutum) which are heavily infested by the cotton aphid (Aphis gossypii)” for “(Brassica oleracea)”, “concentration.” for “concentration and are populated with larvae of the mustard beetle (Phaedon cochleariae) while the leaves are still moist.”, “aphids” for “beetle larvae”

[7] = system: caterpillars of the armyworm (Spodoptera frugiperda); assay: Spodoptera frugiperda test; format: in vivo; details: 500 ppm active compound
Experimental: as §1, with “Spodoptera frugiperda” for “Phaedon larvae”, “caterpillars” for “larvae”, “armyworm (Spodoptera frugiperda)” for “mustard beetle (Phaedon cochleariae)”, “caterpillars” for “beetle larvae”

Amaranthus = assay: Post-emergence test, greenhouse; format: in vivo; details: after three weeks
Experimental: as §2

Sinapis = assay: Post-emergence test, greenhouse; format: in vivo; details: 250 g ai/ha, after three weeks
Experimental: as §2

Structure (SMILES): CCOC(=O)C1(OC(=O)Cn2nc(-c3ccc(Cl)cc3)cc2C)CCC(OC)CC1 (centres unmarked) [Example III-A-1]
chromatographic logP [1]: 4.11

Structure (SMILES): COC1CCC2(CC1)NC(=O)C(n1nc(-c3ccc(Cl)cc3)cc1C)=C2O (single isomer, unassigned) [Example I-1-A-a-4]
Kill rate in % after 7d [2]: 100%
Kill rate in % after 7d [3]: 100%
% damage, Setaria (Setaria; 125 g ai/ha): 100%
% damage, Setaria (Setaria; 250 g ai/ha): 100%
% damage, Avena fatua (Avena fatua; 125 g ai/ha): 100%
% damage, Avena fatua (Avena fatua; 250 g ai/ha): 100%
% damage, Oilseed rape (Oilseed rape): 0%
% damage, Alopecurus (Alopecurus; 125 g ai/ha): 100%
% damage, Alopecurus (Alopecurus; 250 g ai/ha): 100%
% damage, Viola (Viola): 100%
% damage, Bromus (Bromus; 125 g ai/ha): 100%
% damage, Bromus (Bromus; 250 g ai/ha): 100%
% damage, Abutilon (Abutilon): 80%
% damage, Sugarbeet (Sugarbeet): 10%
% damage, Lolium (Lolium; 125 g ai/ha): 100%
% damage, Lolium (Lolium; 250 g ai/ha): 100%
Kill rate in % after 6d [4]: 90%
Kill rate in % after 7d [5]: 95%
Kill rate in % after 6d [6]: 95%
Kill rate in % after 7d [7]: 100%

Structure (SMILES): CCOC(=O)OC1=C(c2c(C)nn(-c3ccc(Cl)cc3)c2C)C(=O)NC12CCC(OC)CC2 (centres unmarked) [Example I-1-B-c-1]
% damage, Setaria (Setaria; 2000 g ai/ha): 95%
% damage, Avena fatua (Avena fatua; 2000 g ai/ha): 90%
% damage, Alopecurus (Alopecurus; 2000 g ai/ha): 90%
% damage, Amaranthus (Amaranthus; 2000 g ai/ha): 90%

Structure (SMILES): Cc1cc(-c2ccc(Cl)cc2)nn1C1=C(O)C2(Cc3ccccc3C2)OC1=O [Example I-2-A-a-5]
logP (pH 2.3) [1]: 2.35

Structure (SMILES): CCOC(=O)OC1=C(n2nc(-c3ccc(Cl)cc3)cc2C)C(=O)NC12CCC(OC)CC2 (centres unmarked) [Example I-1-A-c-1]
Kill rate in % after 7d [2]: 90%
% damage, Setaria (Setaria; 250 g ai/ha): 100%
% damage, Sinapis (Sinapis): 80%
% damage, Avena fatua (Avena fatua; 250 g ai/ha): 100%
% damage, Alopecurus (Alopecurus; 250 g ai/ha): 100%
% damage, Amaranthus (Amaranthus; 250 g ai/ha): 95%
% damage, Abutilon (Abutilon): 95%
Kill rate in % after 7d [5]: 98%
Kill rate in % after 7d [7]: 100%

Structure (SMILES): Cc1cc(-c2ccc(Cl)cc2)nn1C1=C(OC(=O)C(C)(C)C)C2(CCCOC2)OC1=O (centres unmarked) [Example I-2-A-b-1]
chromatographic logP [1]: 4.32

Structure (SMILES): Cc1cc(-c2cccc(C(F)(F)F)c2)nn1C1=C(O)C(C)(CC(C)(C)C)OC1=O (centres unmarked) [Example I-2-A-a-10]
logP (pH 2.3) [1]: 2.92

More lines, main results first:

logP (pH 2.3) [1]: 1.49
Structure (SMILES): Cc1cc(-c2ccc(Cl)cc2)nn1C1=C(O)C2(CCCOC2)OC1=O (centres unmarked) [Example I-2-A-a-6]

logP (pH 2.3) [1]: 2.46
Structure (SMILES): CCOC1CCC2(CC1)OC(=O)C(n1nc(-c3ccc(Cl)cc3)cc1C)=C2O (centres unmarked) [Example I-2-A-a-4]

logP (pH 2.3) [1]: 2.74
Structure (SMILES): Cc1cc(-c2ccc(Cl)cc2)nn1C1=C(O)C2(CCC(C(F)(F)F)CC2)OC1=O (centres unmarked) [Example I-2-A-a-2]

logP (pH 2.3) [1]: 2.70
Structure (SMILES): CCC1(C)OC(=O)C(n2nc(-c3ccc(Br)cc3)cc2C)=C1O (centres unmarked) [Example I-2-A-a-8]

logP (pH 2.3) [1]: 1.74
Structure (SMILES): Cc1cc(-c2ccc(Cl)cc2)nn1C1=C(O)C(C)(C)OC1=O [Example I-2-A-a-3]

chromatographic logP [1]: 2.05
Structure (SMILES): COC1CCC2(CC1)OC(=O)C(n1nc(-c3ccc(Cl)cc3)cc1C)=C2O (centres unmarked) [Example I-2-A-a-1]
Kill rate in % after 6d [4]: 90%
Kill rate in % after 7d [5]: 100%

logP (pH 2.3) [1]: 1.50
Structure (SMILES): Cc1cc(-c2ccccc2)nn1C1=C(O)C(C)(C(C)C)OC1=O (centres unmarked) [Example I-2-A-a-9]

logP (pH 2.3) [1]: 1.55
Structure (SMILES): Cc1cc(-c2ccc(Cl)cc2)nn1C1=C(O)C2(CCOCC2)OC1=O [Example I-2-A-a-7]
